Laboratory results as given in US9127045B2, “Method of inhibiting bacterial growth and biofilm formation with natural quorum sensing peptides” (UNIVERSITY OF SOUTHERN CALIFORNIA, priority 2005, dated 2015).
Ends that are not written are not given here.

Experiments:
gtfB gene of S. mutans = experiment: Transcriptional fusion assay (gtfB promoter-luciferase); format: cell-based
Excerpt: The fusion constructs and the transcription assay were previously described (Goodman, S. D. and Gao, Q., Plasmid 43:85-98 (2000)). Briefly, the constructs comprised the upstream regions of the gtfB and gtfC genes fused to the promoterless coding sequence of the firefly luciferase gene and inserted into the plasmid vector pVA838, a shuttle plasmid capable of propagating in both E. coli and S. mutans marked with erythromycin resistance. The plasmids were introduced into S. mutans GS5 by electroporation and the resulting erythromycin resistant strains were grown in liquid cultures and collected at various optical densities. The reporter gene (luciferase) expression was detected by measuring luminescence upon the addition of luciferin (the substrate for luciferase), see Goodman, S. D. and Gao Q. Plasmid 42:154-157 (1999), incorporated herein by reference.
(§1) Synthetic CSP was dissolved in water to the concentration of 1 mg/mL as described in Li, Y-H et al., J. of Bact., 183:897-908 (2001). […]
The transcriptional fusion assay was performed to determine whether CSP inhibits the expression of the gtfB gene of S. mutans. […] When the expression peaked at the end of the lag phase prior to the exponential growth, the cells were challenged with increasing concentrations of CSP for an incubation period of 10 minutes and assessed for luminescence, the measure of reporter gene expression. […]

[1] = test system: GTFB expression in the wild-type S. mutans; experiment: Western blot of GTFB expression after addition of CSP to cultures; format: cell-based; details: CSP added to fresh cultures at time of dilution, 1 to 8 mcg/mL; FIG. 7 panel 1
Method: (§2) For the Western blotting, the bacteria were incubated to the desired optical density, subjected to the freeze-thaw cycle and mixed with the sample loading buffer. The samples were heated at 100° C. for 15 minutes and subjected to the PAGE. The number of cells per lane of the gel was kept constant at 10^8 cells. The western blotting was performed in accordance with a standard procedure (Sambrook, J. and Russel D. W. Molecular Cloning, a laboratory manual, 3rd ed. Cold Spring Harbor Laboratory Press, NY, 2001). Briefly, after PAGE the samples were transferred onto the nitrocellulose membrane and the latter subjected to the standard ELISA procedure. The anti-GTFB mouse monoclonal antibody was previously characterized (Fukushima, K., Okada, T., Ochiai, K., Infection and Immunity 61:323-328 (1993), incorporated herein by reference). The secondary antibody (HRP-linked goat anti-mouse) and the detection reagents were purchased from Cell Signaling Technology (Beverly, Mass.).
as §1
(§3) A Western blot analysis was performed to determine the effect of CSP on the level of GTFB expression. […] As a control, the same blot was analyzed with antibody specific to FTF, where it was observed that CSP has no effect on FTF expression (FIG. 7, panel 2).

S. mutans = experiment: In vitro attachment assay to a smooth surface (Petri dish) with sucrose; format: cell-based; details: CSP at 8 µg/mL for 10 minutes prior to one hour incubation on Petri dishes with sucrose; without CSP up to 51%; FIG. 9
Method: The bacteria were grown in liquid cultures to the desired optical density. 20 ml of the cultures were then transferred into Petri dishes and sucrose added to the final concentration of 2%. The incubation was resumed for one hour, after which the liquid fraction was withdrawn and the fresh medium was added into which the layer of attached cells was scraped. The percentage of the attached bacteria was determined as the ratio of the optical densities of the attached to the total (a sum of attached and unattached) bacteria.
Synthetic CSP was dissolved in water to the concentration of 1 mg/mL as described in Li, Y-H et al., J. of Bact., 183:897-908 (2001). The cultures were grown in Todd Hewitt Broth (THB) supplemented with 5% horse serum. CSP was added to the cultures at the time of diluting the overnight culture (time zero of the culture growth) to a designated concentration between 1 and 8 mcg/mL. The incubation then continued up to the optical density where the expression of GTF is maximal (OD 650=0.1). The cultures where then collected and used in Western blotting with anti-glucosyltransferase (gtf) antibody. […]
An in vitro assay was performed to determine whether CSP can inhibit the attachment of S. mutans to a smooth surface. When sucrose was added to the medium, the wild-type S. mutans readily attached to the surface of a Petri dish. […]

[2] = test system: S. mutans wild-type strains UA140 and UA159; experiment: Growth inhibition of S. mutans culture by CSP pulse (96-well plate, cell density); format: cell-based
Method: Previously, it was assumed that quorum sensing may be an on/off type of switching event wherein when the quorum sensing molecule reaches a certain threshold, a new behavior is […] and vice versa. The inventors have unexpectedly discovered that the QS regulated gene expression is not an all-or-nothing type of system, but actually has a dose-dependent response. […] At a 100-fold higher concentration (400 μM), CSP inhibits the growth of a S. mutans culture by 50%.
The experiment was performed in a 96-well plate with triplicate wells for each treatment. Cell density was measured by using a plate reader (BioRad). The experiment was repeated three times. Numbers represent the average of the triplicate samples from one representative experiment. Variations between experiments were within 20%.
These experiments were designed to mimic the conditions of the dental hygiene regimen. Specifically, the bacteria were “pulsed” with CSP. The peptide was added for a mere 10 minutes, washed away and the incubation continued in the fresh medium. In this set-up the inhibitory effect persisted for a long time and became undetectable only after 16 hours of the culture growth. Competition experiments have also shown that a mere 3-hour advantage is sufficient to ensure that a resident species in a biofilm will out compete the newcomer.

FTF expression = experiment: Western blot of FTF expression (control) after addition of CSP; format: cell-based, S. mutans; details: same blot, antibody specific to FTF; FIG. 7 panel 2
Method: as §2, §1, §3

## SGSLSTFFRLFNRSFTQALGK [CSP]
gtfB gene of S. mutans; CSP 8 μg/ml (4 μM)
  inhibition of the gtf genes: desired inhibition of the gtf genes
gtfB gene of S. mutans; increasing concentrations of CSP, 10 minutes incubation at peak expression, FIG. 8
  gtfB reporter gene expression (luminescence): increasing concentrations of CSP increased the magnitude of repression
[1]
  peak expression of GTFB (Western blot): lowered proportionally to the amount of peptide added
S. mutans
  bacterial cells localized to the attached layer: less than 8%
[2]; CSP 400 μM, 10 minute pulse, FIG. 12
  inhibition of growth of S. mutans culture: 50%
[2]; CSP 1.6 mM, 10 minute pulse, FIG. 12
  effect on cell division and viability: cell division stops and cells begin to die
[2]; CSP added for 10 minutes, washed away, incubation in fresh medium
  time of culture growth after which the inhibitory effect became undetectable: 16 h
FTF expression
  FTF expression (Western blot): no effect
